In brackets after ≈: the same amount, converted by molar mass.
Columns and labels:
MT4 [1] = test: Compound was tested in vitro for antiviral activity against MT-4 human lymphoid cells infected with the HIV IIIb isolate; type: functional; details: read-out: CIC95
[2] = Solubility at pH 7.4; type: physicochemical; details: buffer
[3] = Solubility at pH 5.2; type: physicochemical; details: buffer
MT4 [4] = test: Compound was tested in vitro for antiviral activity against MT-4 human lymphoid cells infected with the HIV IIIb isolate; value ranges from 25-50; type: functional; details: read-out: CIC95
[5] = Maximal plasma concentration was determined.; type: ADME, organism-based; details: rat
[6] = molecular target: Human immunodeficiency virus type 1 protease (Human immunodeficiency virus 1, UniProt Q72874); test: Inhibition of HIV-1 Protease

Row | solubility [2] | solubility [3] | Compound | IC95 (MT4 [1]) | also measured
1 | < 0.08 µg/mL | 37.2 µg/mL (≈ 51.1 µM) | CC(C)[C@@H]1[C@H](OC(=O)N[C@@H](Cc2ccccc2)[C@H](O)CN2CCN(Cc3cc(Br)cs3)C[C@H]2C(=O)NC(C)(C)C)CCS1(=O)=O | 25 nM | 
2 |  |  | CC(C)[C@@H]1[C@H](OC(=O)N[C@@H](Cc2ccccc2)[C@H](O)CN2CCN(Cc3cc4ccccc4s3)C[C@H]2C(=O)NC(C)(C)C)CCS1(=O)=O | 100 nM | 
3 | 0.1 µg/mL (≈ 0.142 µM) | 11.1 µg/mL (≈ 15.7 µM) | CC(C)[C@@H]1[C@H](OC(=O)N[C@@H](Cc2ccccc2)[C@H](O)CN2CCN(Cc3cc4ccsc4s3)C[C@H]2C(=O)NC(C)(C)C)CCS1(=O)=O | 12 nM | 
4 |  |  | CC(C)[C@@H]1[C@H](OC(=O)N[C@@H](Cc2ccccc2)[C@H](O)CN2CCN(Cc3ccc(-c4cccs4)s3)C[C@H]2C(=O)NC(C)(C)C)CCS1(=O)=O | 50 nM | 
5 |  |  | CCc1ccc(CCN2CCN(C[C@@H](O)[C@H](Cc3ccccc3)NC(=O)O[C@@H]3CCS(=O)(=O)[C@@H]3C(C)C)[C@H](C(=O)NC(C)(C)C)C2)s1 | 50 nM | 
6 | 91.3 µg/mL (≈ 138 µM) | 1270 µg/mL (≈ 1920 µM) | CC(C)[C@@H]1[C@H](OC(=O)N[C@@H](Cc2ccccc2)[C@H](O)CN2CCN(CCc3cccs3)C[C@H]2C(=O)NC(C)(C)C)CCS1(=O)=O |  | IC95 (MT4 [4]): 25 nM; Cmax [5]: > 1000 nM
7 | < 0.05 µg/mL | 6.9 µg/mL (≈ 9.79 µM) | CC(C)[C@@H]1[C@H](OC(=O)N[C@@H](Cc2ccccc2)[C@H](O)CN2CCN(Cc3cc4sccc4s3)C[C@H]2C(=O)NC(C)(C)C)CCS1(=O)=O | 6 nM | 
8 |  |  | CC(C)[C@@H]1[C@H](OC(=O)N[C@@H](Cc2ccccc2)[C@H](O)CN2CCN(Cc3ccc(Br)s3)C[C@H]2C(=O)NC(C)(C)C)CCS1(=O)=O | 100 nM | 
9 |  |  | Cc1cc(CN2CCN(C[C@@H](O)[C@H](Cc3ccccc3)NC(=O)O[C@@H]3CCS(=O)(=O)[C@@H]3C(C)C)[C@H](C(=O)NC(C)(C)C)C2)cc(Cl)n1 | 25 nM | 
10 |  |  | CC(C)[C@@H]1[C@H](OC(=O)N[C@@H](Cc2ccccc2)[C@H](O)CN2CCN(Cc3ccsc3)C[C@H]2C(=O)NC(C)(C)C)CCS1(=O)=O | 50 nM | 
11 |  |  | CC(C)[C@@H]1[C@H](OC(=O)N[C@@H](Cc2ccccc2)[C@H](O)CN2CCN(CCc3ccsc3)C[C@H]2C(=O)NC(C)(C)C)CCS1(=O)=O | 50 nM | 
12 |  |  | CC(C)[C@@H]1[C@H](OC(=O)N[C@@H](Cc2ccccc2)[C@H](O)CN2CCN(Cc3cccs3)C[C@H]2C(=O)NC(C)(C)C)CCS1(=O)=O |  | IC95 (MT4 [4]): 25 nM
13 |  |  | CC(C)[C@@H]1[C@H](OC(=O)N[C@@H](Cc2ccccc2)[C@H](O)CN2CCN(Cc3csc4ccc(Cl)cc34)C[C@H]2C(=O)NC(C)(C)C)CCS1(=O)=O | 100 nM | IC50 [6]: 0.47 nM

— ChEMBL document CHEMBL1128041, “Thiophene derivatives as extremely high affinity P3 ligands for the hydroxyethylpiperazine class of HIV-1 protease inhibitors” (Bioorg Med Chem Lett, 1995)
